Our source for the activity, isoelectric point and in vivo half-life values is patent US5028587A, “Mixed crystals of insulin and insulin derivatives” (Hoechst Aktiengesellschaft, priority 1987, dated 1991).

Data set [1] can be described thus: specific activity of the insulin used. Conditions: specific activity of the substance used for crystallization.
Data set [2] in a line: isoelectric point by isoelectric focusing. Format: physicochemical. The conditions noted are these: pH. The text has this: It is common to all these insulin derivatives that the additional positive charge(s) which is(are) located on the surface of the molecule confer on the molecule an isoelectric point which is displaced into the neutral range. Depending on the derivative, the isoelectric points measured by isoelectric focusing are from about 5.8 to about 8.5, in particular about 6.2 to about 8.2. This means that the derivatives are less soluble in the neutral range than is unmodified insulin, whose isoelectric point, and thus whose region of maximum insolubility, is at a pH of about 5.4, whereas it is normally in dissolved form in the neutral range.

The conditions of data set [3]: cited from earlier work.

As to Arg-B31 human insulin, the activity in data set [1] is 27 I.U./mg.
For the substance insulin [unmodified insulin], the isoelectric point result in data set [2] is on record as “about 5.4”. The in vivo half-life entry in data set [3] was “about 7 minutes”.
Human insulin came in with an activity in data set [1] of 27 I.U./mg.
On the same count and under the same terms, under Arg2 -(B31-32) human insulin stands 27 I.U./mg.
